Experimental data reported in ChEMBL document CHEMBL3886816, “Substituted 5-(3,5-dimethylisoxazol-4-yl)indoline-2-ones” (2016).

Assays:
[1] = target: Bromodomain-containing protein 4 (Homo sapiens, UniProt O60885); test: (§1) Time-Resolved Fluorescence Resonance Energy Transfer (TR-FRET) Assay: The assay was carried out in binding mixtures of the bromodomain protein, 0-10 μM compounds and tetra-acetylated histone peptide (SGRGAC.KGGAC.KGLGAC.KGGAAC.[…]-biotin) in buffer containing 25 mM HEPES pH 7.5, 100 mM NaCl, 0.1% BSA, 0.05% CHAPS, and detection reagents. […] Upon further incubation for 1 hr, the TR-FRET signals were recorded on a BMG PHERAstar FS instrument.
[2] = target: Bromodomain testis-specific protein (Homo sapiens, UniProt Q58F21); test: as §1
[3] = target: Bromodomain-containing protein 2 (Homo sapiens, UniProt P25440); test: as §1
[4] = target: Bromodomain-containing protein 3 (Homo sapiens, UniProt Q15059); test: as §1
Sequence of Bromodomain-containing protein 3 (Q15059 whole entry): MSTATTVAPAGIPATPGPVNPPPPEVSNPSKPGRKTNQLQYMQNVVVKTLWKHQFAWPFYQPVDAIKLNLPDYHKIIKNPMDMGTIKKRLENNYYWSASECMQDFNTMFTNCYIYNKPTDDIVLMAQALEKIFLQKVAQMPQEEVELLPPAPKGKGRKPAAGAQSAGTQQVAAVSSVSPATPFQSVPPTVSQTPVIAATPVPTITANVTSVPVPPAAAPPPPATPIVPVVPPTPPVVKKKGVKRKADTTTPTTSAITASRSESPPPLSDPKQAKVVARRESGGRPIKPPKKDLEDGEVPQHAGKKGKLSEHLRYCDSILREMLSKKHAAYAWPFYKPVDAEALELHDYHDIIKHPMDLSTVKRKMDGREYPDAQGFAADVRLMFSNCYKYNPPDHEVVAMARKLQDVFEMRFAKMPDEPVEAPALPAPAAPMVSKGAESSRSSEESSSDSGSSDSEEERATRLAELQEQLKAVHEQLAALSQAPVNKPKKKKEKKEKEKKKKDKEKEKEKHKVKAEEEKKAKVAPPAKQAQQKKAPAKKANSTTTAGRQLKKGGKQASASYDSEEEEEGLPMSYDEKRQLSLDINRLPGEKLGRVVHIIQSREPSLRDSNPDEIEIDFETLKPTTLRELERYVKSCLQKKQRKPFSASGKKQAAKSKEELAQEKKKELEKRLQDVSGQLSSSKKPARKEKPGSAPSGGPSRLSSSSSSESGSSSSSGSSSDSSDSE

Sequence of Bromodomain-containing protein 2 (P25440 whole entry): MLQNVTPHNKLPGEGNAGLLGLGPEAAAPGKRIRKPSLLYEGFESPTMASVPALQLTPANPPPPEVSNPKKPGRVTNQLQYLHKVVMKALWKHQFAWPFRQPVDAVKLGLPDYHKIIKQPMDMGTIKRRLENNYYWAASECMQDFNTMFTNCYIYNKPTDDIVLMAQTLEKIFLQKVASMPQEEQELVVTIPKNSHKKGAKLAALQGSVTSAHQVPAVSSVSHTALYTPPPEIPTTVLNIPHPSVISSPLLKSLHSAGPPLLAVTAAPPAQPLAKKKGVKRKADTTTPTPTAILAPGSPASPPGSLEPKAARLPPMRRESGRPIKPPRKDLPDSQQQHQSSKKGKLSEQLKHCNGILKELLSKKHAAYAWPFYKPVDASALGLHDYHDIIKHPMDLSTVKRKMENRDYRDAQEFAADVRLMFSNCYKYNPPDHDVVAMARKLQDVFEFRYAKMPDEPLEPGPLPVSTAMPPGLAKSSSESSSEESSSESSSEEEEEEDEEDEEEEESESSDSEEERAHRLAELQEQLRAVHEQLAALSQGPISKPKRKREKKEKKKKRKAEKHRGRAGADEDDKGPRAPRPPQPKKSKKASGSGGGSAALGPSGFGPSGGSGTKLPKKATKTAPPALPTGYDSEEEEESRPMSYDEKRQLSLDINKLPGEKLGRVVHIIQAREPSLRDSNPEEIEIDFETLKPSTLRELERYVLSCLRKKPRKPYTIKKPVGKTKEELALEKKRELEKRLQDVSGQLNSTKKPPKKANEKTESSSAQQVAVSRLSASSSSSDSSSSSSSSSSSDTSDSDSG

Compound | IC50 [1] [nM] | IC50 [2] [nM] | IC50 [3] [nM] | IC50 [4] [nM]
Cc1noc(C)c1-c1ccc2c(c1)C(C1CCCCC1)(N1CCN(C)CC1)C(=O)N2 (stereo not given) | 110 | – | – | –
Cc1noc(C)c1-c1ccc2c(c1)C(OCCO)(C1CCCCC1)C(=O)N2 (stereo not given) | 82 | – | – | –
C=CCCC1(O)C(=O)Nc2ccc(-c3c(C)noc3C)cc21 (stereo not given) | 430 | – | – | –
Cc1noc(C)c1-c1ccc2c(c1)C(O)(C1CCCCCC1)C(=O)N2 (stereo not given) | 98 | – | – | –
C=CCCCC1(O)C(=O)Nc2ccc(-c3c(C)noc3C)cc21 (stereo not given) | 540 | – | – | –
Cc1noc(C)c1-c1ccc2c(c1)C(C1CCCC1)(N1CCN(C)CC1)C(=O)N2 (stereo not given) | 180 | – | – | –
Cc1noc(C)c1-c1ccc2c(c1)C(N)(c1ccccc1)C(=O)N2 (single isomer, unassigned) | 150 | 95 | 55 | 35
